The values below come from publication PMC4800991 (Molecular pharmaceutics, 2015).

Usually IC50 stands for the concentration needed to halve the response being measured. Higher therefore signals lower potency.

Holding throughout (type): cell-based
The target of assay [1] is T1, human thiamine transporter 2 (hTHTR-2) (Homo sapiens, UniProt Q9BZV2).
T1 sequence (Q9BZV2 1-496): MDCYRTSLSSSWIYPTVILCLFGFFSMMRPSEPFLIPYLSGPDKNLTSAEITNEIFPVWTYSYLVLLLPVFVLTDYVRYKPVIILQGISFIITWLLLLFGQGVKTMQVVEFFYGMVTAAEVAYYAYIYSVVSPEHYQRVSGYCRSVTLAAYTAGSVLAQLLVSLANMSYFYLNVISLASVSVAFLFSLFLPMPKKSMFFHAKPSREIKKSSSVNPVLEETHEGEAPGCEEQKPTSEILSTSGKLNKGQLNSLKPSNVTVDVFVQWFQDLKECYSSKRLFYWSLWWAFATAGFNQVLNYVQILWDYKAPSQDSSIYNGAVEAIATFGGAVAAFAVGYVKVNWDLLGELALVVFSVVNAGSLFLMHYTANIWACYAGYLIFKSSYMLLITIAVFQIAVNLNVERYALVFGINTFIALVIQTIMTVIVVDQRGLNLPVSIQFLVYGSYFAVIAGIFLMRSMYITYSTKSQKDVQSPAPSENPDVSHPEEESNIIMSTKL
The assay can be described thus: [3H]MPP+ uptake in HEK-hTHTR-2 cells with and without fedratinib.

Assay [2] addresses T1, human thiamine transporter 2 (hTHTR-2). The assay is described as follows: inhibition of [3H]thiamine uptake in HEK-hTHTR-2 cells.
For assay [3] the target is unchanged. The assay can be described thus: inhibition of [3H]thiamine and […]metformin uptake in HEK-hTHTR-2 cells at […].
The target is the same in assay [4]. The assay is described as follows: saturable [3H]thiamine uptake.
For assay [5] the target is unchanged. The assay can be described thus: saturable […]metformin uptake.

The structures appear in SMILES notation.

With `C[n+]1ccc(-c2ccccc2)cc1` [MPP+, 1-methyl-4-phenylpyridinium], the “[3H]MPP+ uptake in HEK-hTHTR-2 cells with and without fedratinib” value in assay [1] is 1-methyl-4-phenylpyridinium (MPP^+) and the histamine H2-receptor antagonist famotidine were substrates of hTHTR-2.
`[H]/N=C(/N)N/C(=N/[H])NCCc1ccccc1` [phenformin] came in with an IC50 in assay [2] of 244 ± 28.4 µM.
As to `Cc1ncc(C[n+]2cccc(CCO)c2C)c(N)n1` [pyrithiamine], the “inhibition of [3H]thiamine and [14C]metformin uptake in HEK-hTHTR-2 cells at 200” value in assay [3] was “antithiamine analogues (amprolium and pyrithiamine) and prescription drugs (chloroquine, verapamil, and famotidine) were shown to be inhibitors”.
As for `Cc1ncc(C[n+]2csc(CCO)c2C)c(N)n1` [thiamine], the IC50 in assay [4] is 1.03 ± 0.12 µM.
In assay [5], `CN(C)C(=N)N=C(N)N` [metformin, 1,1-dimethylbiguanide] registered an IC50 of 680 ± 140 µM.
